PMC9696794, “Synthesis and Antimicrobial Activity of Short Analogues of the Marine Antimicrobial Peptide Turgencin A: Effects of SAR Optimizations, Cys-Cys Cyclization and Lipopeptide Modifications” (International Journal of Molecular Sciences, 2022)
In brackets after ≈: the same amount, converted by molar mass. Where a SMILES comes first, the peptide text is derived from it. Bridges are numbered along the chain shown (N, C = ends). The star is where a group is joined. Lauroyl = CCCCCCCCCCCC(=O)*

Assays:
[1] = tested on: S. epidermidis RP62A (Se, ATCC 35984); assay: microbe, parasite or virus in culture; format: cell-based, Staphylococcus epidermidis; settings: ATCC 35984, 24 h
In short: (§1)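 Cultures grown in Mueller–Hinton broth were adjusted by OD600 to 2.5–3 × 10^4 CFU/mL and mixed with two-fold peptide dilutions from 256 to 1 µg/mL. Plates were incubated at 35 °C with OD595 monitored every hour for 24 h.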

[2] = tested on: Gram-positive bacterial strains; settings: Table S3; MIC >256 set to 256
In short: as §1

[3] = tested on: C. glutamicum (Cg, ATCC 13032); assay: microbe, parasite or virus in culture; format: cell-based, Corynebacterium glutamicum; settings: ATCC 13032, 24 h
In short: as §1

[4] = tested on: fungi (A. pullulans, C. albicans, Rhodotorula sp.); assay: Antifungal MIC assay, all fungi together (range or geometric mean); format: cell-based; settings: Table S3; MIC >128 set to 128
In short: (§2)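 Overnight cultures in potato dextrose broth with 2% glucose at 25–30 °C were diluted to approx. 4 × 10^5 spores/mL and mixed 1:1 with two-fold peptide dilutions plated at 256 to 1 µg/mL. After 48 h at room temperature, OD600 was read. MIC was the lowest concentration giving OD below 10% of the growth control, in triplicate.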

[5] = tested on: Gram-negative bacterial strains (E. coli and P. aeruginosa); assay: Antibacterial MIC assay, Gram-negative strains together (range or geometric mean); format: cell-based; settings: Table S3; MIC >256 set to 256
In short: as §1

[6] = tested on: P. aeruginosa (Pa, ATCC 27853); assay: microbe, parasite or virus in culture; format: cell-based, Pseudomonas aeruginosa; settings: ATCC 27853, 24 h
In short: as §1

[7] = tested on: Rhodotorula sp. (Rh); assay: microbe, parasite or virus in culture; format: cell-based; settings: 48 h
In short: as §2

[8] = tested on: C. albicans (Ca, ATCC 10231); assay: microbe, parasite or virus in culture; format: cell-based, Candida albicans; settings: ATCC 10231, 48 h
In short: as §2

[9] = tested on: B. subtilis (Bs, ATCC 23857); assay: microbe, parasite or virus in culture; format: cell-based, Bacillus subtilis; settings: ATCC 23857, 24 h
In short: as §1

[10] = tested on: human red blood cells (RBC); assay: Haemolytic activity assay; format: cell-based; settings: for Selectivity index (SI) G- / Selectivity index (SI) G+ / Selectivity index (SI) Fungi: Table S3, highest tested concentration used where EC50 above it; for Selectivity index (SI) G-: EC50/GM of Gram-negative strains; for Selectivity index (SI) G+: EC50/GM of Gram-positive strains; for Selectivity index (SI) Fungi: EC50/GM of fungi; for SI (selectivity index = EC50/GM): haemolytic EC50 over GM of MIC against all bacterial strains, Table 1; for RBC Tox. (EC50), haemolytic activity: human RBC, 1 h, 37 °C, concentration giving 50% haemolysis
In short: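 Washed human erythrocytes (1% hematocrit final) incubated 1 h at 37 °C with agitation with lipopeptides at 500–3.9 μM in PBS (≤1% DMSO), duplicates. Haemoglobin release read at 545 nm relative to 0.1% Triton X-100; EC50 is 50% haemolysis, averaged from three experiments.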

[11] = tested on: E. coli NR698 (outer membrane permeable mutant, imp4213); assay: microbe, parasite or virus in culture; settings: MC4100 NR698 imp4213, deficient outer membrane
Description: (§3) All cyclic and linear peptides were screened for antibacterial activity against four Gram-positive strains: B. subtilis (Bs, ATCC 23857), C. glutamicum (Cg, ATCC 13032), S. aureus (Sa, ATCC 9144) and S. epidermidis RP62A (Se, ATCC 35984), and two Gram-negative strains: E. coli (Ec, ATCC 25922) and P. aeruginosa (Pa, ATCC 27853). The activity was assessed using a broth microdilution assay according to a modified CLSI-based method. Briefly, overnight bacterial cultures were grown in Mueller–Hinton (MH) broth medium (Difco Laboratories, Detroit, MI, USA) for 2 h at room temperature. The optical density (OD600) was measured, and the bacterial suspensions were adjusted to 2.5–3 × 10^4 CFU/mL in MH medium. The bacterial suspension (50 µL) was distributed in 96-well plates (Nunc, Roskilde, Denmark) preloaded with two-fold dilution series (256 to 1 µg/mL) of peptide solutions (50 µL), giving a final well volume of 100 µL. The microplates were incubated in an EnVision 2103 microplate reader (PerkinElmer, Llantrisant, UK) at 35 °C, with OD595 recorded every hour for 24 h. MIC was defined as the lowest concentration of peptides showing an optical density less than 10% of the negative (growth) control, consisting of bacterial suspension and water. Polymyxin B sulfate (Sigma-Aldrich, St. Louis, MO, USA) and chlorhexidine acetate (CHX, Fresenius Kabi, Halden, Norway), both with concentrations ranging from 12.5 to 0.09 μg/mL, served as positive (growth inhibition) controls. All peptides were tested in triplicate.
(§4) MIC values were determined for all cyclic peptides against two E. coli strains: wild type (WT) MC4100 and the hyperpermeable variant NR698, having a deficient outer membrane. The NR698 strain, containing lptD4213/imp4213 mutation, was kindly provided by M. Grabowicz (Emory University School of Medicine, Rollins Research Center, Atlanta, GA, USA). The assay was performed in the same way as previously described for the antibacterial MIC assay.

[12] = tested on: E. coli MC4100 (wild type, WT); assay: microbe, parasite or virus in culture; settings: wild type
Description: as §3, §4

[13] = tested on: A. pullulans (Ap); assay: microbe, parasite or virus in culture; format: cell-based, Aurobasidium pollulans; settings: 48 h
In short: as §2

[14] = tested on: S. aureus (Sa, ATCC 9144); assay: microbe, parasite or virus in culture; format: cell-based, Staphylococcus aureus; settings: ATCC 9144, 24 h
In short: as §1

[15] = tested on: all bacterial strains; assay: Antibacterial MIC assay, all bacterial strains together (range or geometric mean); format: cell-based; settings: for GM (geometric mean of the MIC values against all bacterial strains): Table 1, six bacterial strains; for GM of MIC Tot. bact.: Table S3, all bacterial test strains, MIC >256 set to 256
In short: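 Broth microdilution in Mueller–Hinton broth against B. subtilis, C. glutamicum, S. aureus, S. epidermidis RP62A, E. coli and P. aeruginosa; inoculum 2.5–3 × 10^4 CFU/mL, 35 °C, OD595 read hourly for 24 h. MIC: lowest peptide concentration giving OD below 10% of growth control; geometric mean across strains, triplicate.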

[16] = tested on: E. coli (Ec, ATCC 25922); assay: microbe, parasite or virus in culture; format: cell-based, Escherichia coli; settings: ATCC 25922, 24 h
In short: as §1

| Compound | Antimicrobial Activity (MIC) Gram + Se [1] | GM of MIC G+ [2] | Antimicrobial Activity (MIC) Gram + Cg [3] | GM of MIC Fungi [4] | GM of MIC G- [5] | Antimicrobial Activity (MIC) Gram − Pa [6] | Antimicrobial Activity (MIC) Fungi Rh [7] | Antimicrobial Activity (MIC) Fungi Ca [8] | Antimicrobial Activity (MIC) Gram + Bs [9] | Selectivity index (SI) G- [10] | Selectivity index (SI) G+ [10] | Selectivity index (SI) Fungi [10] | SI (selectivity index = EC50/GM) [10] | RBC Tox. (EC50), haemolytic activity [10] | MIC E. coli NR698 (mutant) [11] | MIC E. coli MC4100 (WT) [12] | Antimicrobial Activity (MIC) Fungi Ap [13] | Antimicrobial Activity (MIC) Gram + Sa [14] | GM (geometric mean of the MIC values against all bacterial strains) [15] | GM of MIC Tot. bact. [15] | also measured |
| --- | --- | --- | --- | --- | --- | --- | --- | --- | --- | --- | --- | --- | --- | --- | --- | --- | --- | --- | --- | --- | --- |
| CC(C)C[C@H](NC(=O)[C@H](CCCNC(=N)N)NC(=O)[C@@H]1CSSC[C@H](N)C(=O)NCC(=O)N[C@@H](CCCNC(=N)N)C(=O)N[C@@H](CCCNC(=N)N)C(=O)N2CCC[C@H]2C(=O)N[C@@H](Cc2c[nH]c3ccccc23)C(=O)N[C@@H](Cc2c[nH]c3ccccc23)C(=O)N[C@@H](Cc2c[nH]c3ccccc23)C(=O)N[C@@H](CCCNC(=N)N)C(=O)N1)C(N)=O [cTurg-7] (H-CGRRPWWWRCRL-NH2; disulfide 1-10; N-terminus assumed) | 8 µg/mL | 7 µg/mL | 4 µg/mL | 32 µg/mL | 23 µg/mL | 32 µg/mL | 32 µg/mL | 32 µg/mL | 4 µg/mL | 9 | 29 | 6 | 20 | 197 µg/mL | 8 µg/mL (≈ 4.78 µM) | 8 µg/mL (≈ 4.78 µM) | 32 µg/mL | 16 µg/mL | 10 µg/mL | 10 µg/mL | Antimicrobial Activity (MIC) Gram − Ec [16]: 16 µg/mL |
| CCCCCCCCCCCC(=O)N[C@H]1CSSC[C@@H](C(=O)N[C@@H](CCCCN)C(=O)N[C@@H](CC(C)C)C(N)=O)NC(=O)[C@H](CCCCN)NC(=O)[C@H](Cc2c[nH]c3ccccc23)NC(=O)CNC(=O)[C@H](Cc2c[nH]c3ccccc23)NC(=O)[C@H](Cc2c[nH]c3ccccc23)NC(=O)[C@H](CCCCN)NC(=O)[C@H](CCCCN)NC(=O)CNC1=O [Peptide C12-cTurg-2, C12- (CGKKWWGWKC)KL-NH2] (Lauroyl-CGKKWWGWKCKL-NH2; disulfide 1-10) | 8 µg/mL | 7 µg/mL | 8 µg/mL | 40 µg/mL | 16 µg/mL | 16 µg/mL | 32 µg/mL | 64 µg/mL | 4 µg/mL | 2 | 5 | 1 | 4 | 32 µg/mL | 8 µg/mL (≈ 4.7 µM) | 8 µg/mL (≈ 4.7 µM) | 32 µg/mL | 8 µg/mL | 9 µg/mL | 9 µg/mL | Antimicrobial Activity (MIC) Gram − Ec [16]: 16 µg/mL |
